In PubChem BioAssay (NCI):
“And” between values parts separate entries of the source, which are not always exact repeats. Equal entries are not always repeated.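 Interpolation was linear, between the two tested concentrations surrounding the appropriate level; five concentrations were tested over 48 hours in 96-well plates. The concentration for 50% growth inhibition is given as GI50. TGI denotes the concentration required for complete inhibition of growth.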

How the values were obtained:
Assay in all cases: DTP human tumour cell line panel, 48 h
[1] = tested on: RPMI-8226 leukemia
[2] = tested on: MALME-3M melanoma
[3] = tested on: HCC-2998 colon
[4] = tested on: HOP-92 NSCLC
[5] = tested on: SN12C renal
[6] = tested on: HL-60(TB) leukemia
[7] = tested on: RXF 393 renal
[8] = tested on: UO-31 renal
[9] = tested on: COLO 205 colon
[10] = tested on: CCRF-CEM leukemia

## NS(=O)(=O)c1ccc(-n2nc(-c3ccc(Br)cc3)ccc2=O)cc1
[1]
  GI50: > 10 µM
  TGI: > 10 µM
[2]
  GI50: 7.71 µM
  TGI: > 10 µM
[3]
  GI50: > 10 µM
  TGI: > 10 µM
[4]
  GI50: > 10 µM
  TGI: > 10 µM
[5]
  GI50: > 10 µM
  TGI: > 10 µM
[6]
  GI50: > 10 µM
  TGI: > 10 µM
[7]
  GI50: > 10 µM
  TGI: > 10 µM
[8]
  GI50: > 10 µM
  TGI: > 10 µM
[9]
  GI50: > 10 µM
  TGI: > 10 µM
[10]
  GI50: > 10 µM
  TGI: > 10 µM

## Cn1cc(C2=C(c3ccc(OC[C@@H](O)CO)cc3)C(=O)NC2=O)c2ccccc21
[1]
  GI50: > 25 µM
  TGI: > 25 µM
[2]
  GI50: > 25 µM
  TGI: > 25 µM
[3]
  GI50: > 25 µM
  TGI: > 25 µM
[4]
  GI50: > 25 µM
  TGI: > 25 µM
[5]
  GI50: > 25 µM
  TGI: > 25 µM
[6]
  GI50: > 25 µM
  TGI: > 25 µM
[7]
  GI50: 16.4 µM
  TGI: > 25 µM
[8]
  GI50: > 25 µM
  TGI: > 25 µM
[9]
  GI50: > 25 µM
  TGI: > 25 µM
[10]
  GI50: > 25 µM
  TGI: > 25 µM

## O=C1NC(=O)C2C(=O)NC(=O)C1C2(c1ccccc1)c1ccc(Cl)cc1 (centres undefined)
[1]
  TGI: > 100 µM
[2]
  TGI: > 100 µM
[3]
  TGI: > 100 µM
[4]
  TGI: > 100 µM
[5]
  TGI: > 100 µM
[6]
  TGI: > 100 µM
[7]
  TGI: > 100 µM
[8]
  TGI: > 100 µM
[9]
  TGI: > 100 µM
[10]
  TGI: > 100 µM

## N#Cc1cnn2ccn(C3OC(COC(=O)c4ccccc4)C(OC(=O)c4ccccc4)C3OC(=O)c3ccccc3)c12 (centres undefined)
[1]
  TGI: > 21.5 µM
[2]
  TGI: > 21.5 µM
[3]
  TGI: > 21.5 µM
[4]
  TGI: > 31.6 µM
[5]
  TGI: > 21.5 µM
[6]
  TGI: > 21.5 µM
[7]
  TGI: > 21.5 µM
[8]
  TGI: > 21.5 µM
[9]
  TGI: > 21.5 µM
[10]
  TGI: > 21.5 µM

## CCOc1ccc2nc(NC(=O)/C(CC(=O)CC(C3=C(O)c4ccccc4CC3=O)c3ccccc3)=N\O)sc2c1 (centres undefined)
[1]
  TGI: > 100 µM
[2]
  TGI: > 100 µM
[3]
  TGI: > 100 µM
[4]
  TGI: > 100 µM
[5]
  TGI: > 100 µM
[6]
  TGI: > 100 µM
[7]
  TGI: > 100 µM
[8]
  TGI: > 100 µM
[9]
  TGI: > 100 µM
[10]
  TGI: > 100 µM

## Cc1nc2nnc(C)n2c2c1C(=O)Nc1ccccc1N2
[1]
  TGI: > 100 µM
[2]
  TGI: > 100 µM
[3]
  TGI: > 100 µM
[4]
  TGI: > 100 µM
[5]
  TGI: > 100 µM
[6]
  TGI: > 100 µM
[7]
  TGI: > 100 µM
[8]
  TGI: > 100 µM
[9]
  TGI: > 100 µM
[10]
  TGI: > 100 µM

## CCN1CCN(c2nc(NCCNc3ccnc4cc(Cl)ccc34)c3ccccc3n2)CC1
[1]
  GI50: 1.54 µM
  TGI: 4.41 µM
[2]
  GI50: 1.95 µM
  TGI: 3.58 µM
[3]
  GI50: 1.69 µM
  TGI: 4.91 µM
[4]
  GI50: 1.14 µM
  TGI: 2.49 µM
[5]
  GI50: 1.21 µM
  TGI: 2.88 µM
[6]
  GI50: 2.01 µM
  TGI: 4.01 µM
[7]
  GI50: 1.26 µM
  TGI: 2.77 µM
[8]
  GI50: 1.53 µM
  TGI: 3.3 µM
[9]
  GI50: 0.505 µM
  TGI: 2.07 µM
[10]
  GI50: 0.759 µM
  TGI: 7.59 µM

## O=c1c(Cl)c(Cl)cnn1-c1ccccc1
[1]
  TGI: > 38.7 µM and 27 µM
[2]
  TGI: 7.91 µM and 9.73 µM
[3]
  TGI: 9.66 µM and 6.39 µM
[4]
  GI50: 1.98 µM and 7.58 µM
  TGI: 3.61 µM and 16 µM
[5]
  TGI: 8.88 µM and 4.01 µM
[6]
  GI50: 0.774 µM
  TGI: 10.7 µM and 2.11 µM
[7]
  TGI: 4.21 µM and 5.38 µM
[8]
  TGI: 8.91 µM and 7.47 µM
[9]
  GI50: 1.74 µM and 3.54 µM
  TGI: 3.62 µM and 7.92 µM
[10]
  GI50: 0.825 µM and 1.8 µM
  TGI: 9.58 µM and 5.53 µM

## COc1cccc(-c2nn(-c3ccccc3)cc2-c2ccnc(NCCCNS(=O)(=O)c3cccc(F)c3)c2)c1
[1]
  GI50: 2.91 µM
  TGI: 9.92 µM
[2]
  GI50: 5.16 µM
  TGI: > 100 µM
[3]
  GI50: 3.92 µM
  TGI: > 100 µM
[4]
  GI50: 2.42 µM
  TGI: 9.63 µM
[5]
  GI50: 5.37 µM
  TGI: > 100 µM
[6]
  GI50: 3.52 µM
  TGI: 24.7 µM
[7]
  GI50: 4.18 µM
  TGI: > 100 µM
[8]
  GI50: 1.87 µM
  TGI: > 100 µM
[9]
  GI50: 2.41 µM
  TGI: 9.39 µM
[10]
  GI50: 4.62 µM
  TGI: > 100 µM

## CC[n+]1ccc2c(c1)C(=O)c1nccc3c1c-2nc1ccccc13
[1]
  GI50: 6.49 µM
  TGI: 21.7 µM
[2]
  GI50: 0.762 µM
  TGI: 2.03 µM
[3]
  GI50: 1.05 µM
  TGI: 4.97 µM
[4]
  GI50: 1.45 µM
  TGI: 7.02 µM
[5]
  GI50: 0.142 µM
  TGI: 0.66 µM
[6]
  GI50: 5.79 µM
  TGI: 16.9 µM
[7]
  GI50: 0.93 µM
  TGI: 3.68 µM
[8]
  GI50: 0.948 µM
  TGI: 8.42 µM
[9]
  GI50: 1.13 µM
  TGI: 5.22 µM
[10]
  GI50: 1.39 µM
  TGI: 14.4 µM

## OC(c1cccc(C(F)(F)F)c1)c1cnccc1NC1CCCCCC1 (centres undefined)
[1]
  GI50: 1.67 µM
  TGI: 4.11 µM
[2]
  GI50: 1.51 µM
  TGI: 2.94 µM
[3]
  GI50: 1.74 µM
  TGI: 3.36 µM
[4]
  GI50: 1.32 µM
  TGI: 3.88 µM
[5]
  GI50: 1.87 µM
  TGI: 4.08 µM
[6]
  GI50: 2.13 µM
  TGI: 4.47 µM
[7]
  GI50: 1.44 µM
  TGI: 2.89 µM
[8]
  GI50: 1.35 µM
  TGI: 2.97 µM
[9]
  GI50: 1.73 µM
  TGI: 3.37 µM
[10]
  GI50: 2.56 µM
  TGI: 7.98 µM

## N#Cc1c(O)c2c(c(O)c1C#N)C(=O)c1ccccc1C2=O
[1]
  GI50: 1.42 µM
  TGI: 4.67 µM
[2]
  GI50: 0.475 µM
  TGI: 1.7 µM
[3]
  GI50: 2.51 µM
  TGI: 8.59 µM
[4]
  GI50: 2.2 µM
  TGI: 5.92 µM
[5]
  GI50: 1.82 µM
  TGI: 4.04 µM
[6]
  GI50: 1.44 µM
  TGI: 3.64 µM
[7]
  GI50: 1.86 µM
  TGI: 6.27 µM
[8]
  GI50: 2.3 µM
  TGI: 9.81 µM
[9]
  GI50: 1.78 µM
  TGI: 4.13 µM
[10]
  GI50: 2.23 µM
  TGI: 5.82 µM

## O=C(O/N=C1/CCC/C1=C\c1ccccc1)c1ccc([N+](=O)[O-])cc1
[1]
  TGI: > 100 µM
[2]
  TGI: > 100 µM
[3]
  TGI: 25.7 µM
[4]
  TGI: > 100 µM
[5]
  TGI: > 100 µM
[6]
  TGI: > 100 µM
[7]
  TGI: > 100 µM
[8]
  TGI: 74.9 µM
[9]
  TGI: > 100 µM
[10]
  TGI: > 100 µM

## CC(=O)/C=C/c1cccc(N=S)c1
[1]
  TGI: > 27.8 µM
[2]
  TGI: > 100 µM
[3]
  TGI: 34.6 µM
[4]
  TGI: > 100 µM
[5]
  TGI: 87.2 µM
[6]
  TGI: 34.2 µM
[7]
  TGI: 53.8 µM
[8]
  TGI: > 74 µM
[9]
  TGI: > 48 µM
[10]
  TGI: > 49.1 µM
